Source: US4814329A, “Antihyperlipoproteinemic 5-substituted sulfur-containing benzimidazole derivatives” (Richter Gedeon Vegyeszeti Gyar R.T., priority 1985, dated 1989)
Where a name gives a salt, the structure may show the parent alone. Read-outs that look alike come from different tables or passages of the source.

Assays:
[1] = tested on: rats with the cholesterol diet; test: in vivo test in rats with the cholesterol diet, 10 day treatments (Table 2); details: rat; for LDL + VLDL percentile change / Serum cholesterol percentile change / triglyceride percentile change / HDL cholesterol percentile change: 10 day treatment
Procedure: […] (Schurr, P. E.; Schultz, J. R., Day, D. E.; Atherosclerosis Drug Discovery Ed.: C. E. Day, Plenum, New York 215 (1976) and Acta Pharm. Hung., 49, 182. (1979) During this time the total cholesterol level of the serum increased with 200-250% compared to the normal level, while the amount of the HDL chloesterol diminished by 45-50%. Groups consisting of six animals were formed. […] Then after a 18 hour starving the animals were bled to death under etheric narcosis on the 8th day. The blood samples were centrifuged and the serum total cholesterol and the HDL cholesterol were determined by Backmann enzymatic test, while the triglyceride concentration of the serum was determined by Van Handel's method (J. Lab.: Clin. Med. 41, 486 (1953). The amount of the LDL+VLDL was measured by manganese precipitation turbidimetrically (Schurr, P. E., Schulz, J. R., Day, C. E.: Atherosclerosis Drug Discovery Ed.: C. E. Day, Plenum Press, New York 215 (1976). The antiaggreagtion activity was measured in vitro on human plasm being rich in thrombocytes by a Chrono-log aggregometer. The aggregation was induced by ADP, adrenaline, collagen and arachidonic acid. […]. The lipidperoxidation was induced by N-ethyl-alenicimide (Arzneimittel-Forschung 29, 981 (1979).
The affect of compound no. 0202479 to the rats with the
cholesterol diet in 10 day treatments

[2] = tested on: human plasm being rich in thrombocytes; test: in vitro antiaggregation activity (Chrono-log aggregometer; ADP, adrenaline, collagen, arachidonic acid); assay type: cell-based; details: for inhibition at 250 µM / inhibition at 500 µM / inhibition at 1000 µM: Homo sapiens
Excerpt: Whistar hannover male rats weighing 140-160 g were fed for 7 days with a rat fodder supplemented with 1.5% of cholesterol, 0.5% of sodium cholate and 5% of solid fat. (Schurr, P. E.; Schultz, J. R., Day, D. E.; Atherosclerosis Drug Discovery Ed.: C. E. Day, Plenum, New York 215 (1976) and Acta Pharm. Hung., 49, 182. (1979) During this time the total cholesterol level of the serum increased with 200-250% compared to the normal level, while the amount of the HDL chloesterol diminished by 45-50%. Groups consisting of six animals were formed. The compounds of the invention were administered orally starting on the fourth day of the addition of the cholesterol fodder and it was continued by the end of the experiments, by the seventh day, in one or two doses. Then after a 18 hour starving the animals were bled to death under etheric narcosis on the 8th day. The blood samples were centrifuged and the serum total cholesterol and the HDL cholesterol were determined by Backmann enzymatic test, while the triglyceride concentration of the serum was determined by Van Handel's method (J. Lab.: Clin. Med. 41, 486 (1953). The amount of the LDL+VLDL was measured by manganese precipitation turbidimetrically (Schurr, P. E., Schulz, J. R., Day, C. E.: Atherosclerosis Drug Discovery Ed.: C. E. Day, Plenum Press, New York 215 (1976). The antiaggreagtion activity was measured in vitro on human plasm being rich in thrombocytes by a Chrono-log aggregometer. The aggregation was induced by ADP, adrenaline, collagen and arachidonic acid. The determination of the inhibition of the lipidperoxidation was carried out by thiobarbituric acidic method with the aid of washed human thrombocyte suspension. The lipidperoxidation was induced by N-ethyl-alenicimide (Arzneimittel-Forschung 29, 981 (1979).

[3] = tested on: washed human thrombocyte suspension; test: inhibition of lipidperoxidation, thiobarbituric acidic method; assay type: cell-based; details: induced by N-ethyl-alenicimide, read-out: medium inhibiting concentration, lipidperoxidation
Procedure: Whistar hannover male rats weighing 140-160 g were fed for 7 days with a rat fodder supplemented with 1.5% of cholesterol, 0.5% of sodium cholate and 5% of solid fat. […] The blood samples were centrifuged and the serum total cholesterol and the HDL cholesterol were determined by Backmann enzymatic test, while the triglyceride concentration of the serum was determined by Van Handel's method (J. Lab.: Clin. Med. 41, 486 (1953). The amount of the LDL+VLDL was measured by manganese precipitation turbidimetrically (Schurr, P. E., Schulz, J. R., Day, C. E.: Atherosclerosis Drug Discovery Ed.: C. E. Day, Plenum Press, New York 215 (1976). The antiaggreagtion activity was measured in vitro on human plasm being rich in thrombocytes by a Chrono-log aggregometer. The aggregation was induced by ADP, adrenaline, collagen and arachidonic acid. […]

[4] = acute toxicity, oral, mice; design: species or system male and female mice; details: mouse, in vivo, observed 14 days
Excerpt: (§1) The acute toxicity of this compound was examined on male and female mice and rats by oral administration.

[5] = acute toxicity, oral, rats; design: species or system male and female rats; details: rat, in vivo, observed 14 days
Excerpt: as §1

[6] = ADP induced, read-out: Aggregation inhibition, ADP
[7] = adrenaline induced, read-out: Aggregation inhibition, Adrenaline
[8] = collagen induced, read-out: Aggregation inhibition, Collagene

With `C=CCSc1nc2ccc(Cc3ccccc3)cc2[nH]1` [compound 0202479, 5-Benzyl-2-(2-propenylthio)-benzimidazole hydrobromide, hydrochloride and base] the “effectiveness, in words” value [1] was “remarkably effective”, the “LDL + VLDL percentile change” value ([1]; 10.0 mg/kg p.o.) was -20.8 percentile change and the “Serum cholesterol percentile change” value ([1]; 10.0 mg/kg p.o.) was -7.8 percentile change. The triglyceride percentile change ([1]; 10.0 mg/kg p.o.) was -3.1 percentile change, the “HDL cholesterol percentile change” value ([1]; 10.0 mg/kg p.o., * 0.01 P 0.05) was “+47.7 percentile change” and the “HDL cholesterol percentile change” value ([1]; 30.0 mg/kg p.o.) was “+40.1 percentile change”. The “Serum cholesterol percentile change” value ([1]; 30.0 mg/kg p.o., * 0.01 P 0.05) was -41.5 percentile change, the “LDL + VLDL percentile change” value ([1]; 30.0 mg/kg p.o., ** P 0.01) was -48.5 percentile change and the triglyceride percentile change ([1]; 30.0 mg/kg p.o., ** P 0.01) was -47.7 percentile change. The “Serum cholesterol percentile change” value ([1]; 100.0 mg/kg p.o.) was -66.3 percentile change, the “HDL cholesterol percentile change” value ([1]; 100.0 mg/kg p.o., ** P 0.01) was “+56.1 percentile change” and the “LDL + VLDL percentile change” value ([1]; 100.0 mg/kg p.o., ** P 0.01) was -80.5 percentile change. The triglyceride percentile change ([1]; 100.0 mg/kg p.o., ** P 0.01) was -55.8 percentile change, the “inhibition of aggregation caused by ADP and adrenaline, in words” value ([2]; ADP and adrenaline) was “inhibited by the compound-similarly to Clofibrate--in the second phase” and the inhibition at 250 µM ([2]; read-out: inhibition of aggregation induced by arachidonic acid) was 100%. It also gave an inhibition at 250 µM [2, 6] of 20%, an inhibition at 500 µM [2, 6] of 59% and an inhibition at 1000 µM [2, 6] of 66%. The inhibition at 250 µM [2, 7] was 9%, the inhibition at 500 µM [2, 7] was 16% and the inhibition at 1000 µM [2, 7] was 73%. The inhibition at 250 µM ([2]; arachidonic acid induced, read-out: Aggregation inhibition, Arachidonic acid) was 100%, the inhibition at 250 µM [2, 8] was 6% and the inhibition at 500 µM [2, 8] was 16%. It also gave an inhibition at 1000 µM [2, 8] of 39%, an IC50 [3] of 24 µM and an LD50 at 336 h [4] of 960 mg/kg. The LD50 at 336 h [5] was > 2000 mg/kg.
